Measured values reported in ChEMBL document CHEMBL3044998, “Improgan-like Analgesics: A Family of Compounds Derived From Histamine Anatgonists” (Med Chem Res, 2004).
Active and inactive are the calls of the source. No cut-off for these calls is given here.

Tests used:
Rattus norvegicus [1] = assay: Antinociceptive activity in icv dosed Rattus norvegicus albino (rat) tus norvegicus Sprague-Dawley (rat) assessed as increase in thermal-stimulus induced tail flick latency after 5 to 10 min; format: functional; settings: for Emax: Rattus norvegicus, Sprague-Dawley albino, Tail, central
Rattus norvegicus [2] = assay: Antinociceptive activity in icv dosed Rattus norvegicus albino (rat) tus norvegicus Sprague-Dawley (rat) assessed as maximal increase in paw withdrawal latency after 5 to 10 min by hot plate test; format: functional; settings: for Emax: Rattus norvegicus, Sprague-Dawley albino, central
Rattus norvegicus [3] = assay: Neurotoxicity in icv dosed Rattus norvegicus albino (rat) tus norvegicus Sprague-Dawley (rat) assessed as motor impairment; format: toxicity, organism-based; settings: in vivo, icv_or_intrathecal
Rattus norvegicus [4] = assay: Toxicity in icv dosed Rattus norvegicus albino (rat) tus norvegicus Sprague-Dawley (rat) assessed as behavioral changes; format: organism-based; settings: in vivo, icv_or_intrathecal
Rattus norvegicus [5] = assay: Antinociceptive activity in icv dosed Rattus norvegicus albino (rat) tus norvegicus Sprague-Dawley (rat) assessed as increase in thermal-stimulus induced tail flick latency; format: functional, organism-based; settings: TDE = time-dependent effect
Rattus norvegicus [6] = assay: Antinociceptive activity in icv dosed Rattus norvegicus albino (rat) tus norvegicus Sprague-Dawley (rat) assessed as maximal increase in paw withdrawal latency by hot plate test; format: functional, organism-based; settings: TDE = time-dependent effect
Rattus norvegicus [7] = assay: Neurotoxicity in Rattus norvegicus albino (rat) tus norvegicus Sprague-Dawley (rat) assessed as motor impairment at 20 to 60 ug, icv; format: toxicity, organism-based; settings: in vivo, icv_or_intrathecal
Rattus norvegicus [8] = assay: Toxicity in Rattus norvegicus albino (rat) tus norvegicus Sprague-Dawley (rat) assessed as behavioral changes at 20 to 60 ug, icv; format: organism-based; settings: in vivo, icv_or_intrathecal
Rattus norvegicus [9] = assay: Antinociceptive activity in Rattus norvegicus albino (rat) tus norvegicus Sprague-Dawley (rat) assessed as increase in thermal-stimulus induced tail flick latency at 20 to 60 ug, icv; format: functional, organism-based; settings: TDE = time-dependent effect
Rattus norvegicus [10] = assay: Antinociceptive activity in Rattus norvegicus albino (rat) tus norvegicus Sprague-Dawley (rat) assessed as maximal increase in paw withdrawal latency at 20 to 60 ug, icv by hot plate test; format: functional, organism-based; settings: TDE = time-dependent effect
Rattus norvegicus [11] = assay: Antinociceptive activity in Rattus norvegicus albino (rat) tus norvegicus Sprague-Dawley (rat) assessed as increase in thermal-stimulus induced tail flick latency at 20 to 60 ug, icv after 30 to 60 min; format: functional, organism-based
Rattus norvegicus [12] = assay: Antinociceptive activity in Rattus norvegicus albino (rat) tus norvegicus Sprague-Dawley (rat) assessed as maximal increase in paw withdrawal latency at 20 to 60 ug, icv after 30 to 60 min by hot plate test; format: functional, organism-based
Histamine H3 receptor [13] = molecular target: Histamine H3 receptor (Homo sapiens, UniProt Q9Y5N1); assay: Binding affinity to histamine H3 receptor (unknown origin)
Histamine H2 receptor = Histamine H2 receptor (Homo sapiens, UniProt P25021); assay: Binding affinity to histamine H2 receptor (unknown origin)
Histamine H3 receptor [14] = molecular target: Histamine H3 receptor (Cavia porcellus, UniProt Q9JI35); assay: Binding affinity to histamine H3 receptor in Cavia porcellus (guinea pig) ileum; format: tissue-based
Histamine H3 receptor (Cavia porcellus, UniProt Q9JI35), sequence (Q9JI35 whole entry): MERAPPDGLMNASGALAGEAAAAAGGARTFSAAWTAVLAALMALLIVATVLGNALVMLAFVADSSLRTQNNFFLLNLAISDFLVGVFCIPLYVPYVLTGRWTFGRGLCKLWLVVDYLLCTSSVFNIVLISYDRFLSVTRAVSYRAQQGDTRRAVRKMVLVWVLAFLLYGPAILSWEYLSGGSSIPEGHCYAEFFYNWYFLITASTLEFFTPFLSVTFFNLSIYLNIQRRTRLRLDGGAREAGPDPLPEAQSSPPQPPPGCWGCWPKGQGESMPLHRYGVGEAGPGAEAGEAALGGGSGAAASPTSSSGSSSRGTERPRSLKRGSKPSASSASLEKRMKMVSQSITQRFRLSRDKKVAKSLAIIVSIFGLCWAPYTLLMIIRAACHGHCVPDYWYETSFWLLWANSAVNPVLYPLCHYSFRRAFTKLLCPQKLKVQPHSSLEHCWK

Histamine H2 receptor, sequence (P25021 whole entry): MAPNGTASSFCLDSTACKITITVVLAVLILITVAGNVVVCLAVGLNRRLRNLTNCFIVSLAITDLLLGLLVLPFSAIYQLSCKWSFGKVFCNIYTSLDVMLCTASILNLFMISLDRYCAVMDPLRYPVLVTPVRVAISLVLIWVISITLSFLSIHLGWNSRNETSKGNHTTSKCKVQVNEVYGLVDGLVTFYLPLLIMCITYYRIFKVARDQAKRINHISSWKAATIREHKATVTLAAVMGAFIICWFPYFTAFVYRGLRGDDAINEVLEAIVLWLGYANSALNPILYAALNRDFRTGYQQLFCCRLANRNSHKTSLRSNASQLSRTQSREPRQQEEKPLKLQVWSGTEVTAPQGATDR
Histamine H3 receptor (Homo sapiens, UniProt Q9Y5N1), sequence (Q9Y5N1 whole entry): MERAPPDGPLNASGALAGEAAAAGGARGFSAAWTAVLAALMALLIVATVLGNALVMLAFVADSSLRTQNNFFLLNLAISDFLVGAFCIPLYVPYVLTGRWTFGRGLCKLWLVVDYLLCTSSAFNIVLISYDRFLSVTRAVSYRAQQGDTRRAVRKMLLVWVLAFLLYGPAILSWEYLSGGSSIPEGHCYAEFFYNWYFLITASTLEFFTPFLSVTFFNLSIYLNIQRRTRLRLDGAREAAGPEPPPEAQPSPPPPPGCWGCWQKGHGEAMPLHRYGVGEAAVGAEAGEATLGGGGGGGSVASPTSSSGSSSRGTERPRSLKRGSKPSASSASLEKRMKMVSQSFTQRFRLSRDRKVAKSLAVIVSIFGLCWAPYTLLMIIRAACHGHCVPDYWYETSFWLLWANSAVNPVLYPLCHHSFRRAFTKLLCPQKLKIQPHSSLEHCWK

SMILES | ED50 (Rattus norvegicus [1]) | ED50 (Rattus norvegicus [2]) | further results
C/N=C(\S)NCCCn1ccnc1 | >504 nmol | >504 nmol | 
CNC(=S)NCCSCc1ccc(CN(C)C)o1 | 117 nmol | 117 nmol | Activity (Rattus norvegicus [3]): Non-toxic; Activity (Rattus norvegicus [4]): Non-toxic; Activity (Rattus norvegicus [5]): tde; Activity (Rattus norvegicus [6]): tde
c1cc(CN2CCCCC2)cc(OCCCNc2nc3ccccc3s2)c1 [ZOLANTIDINE] | >262 nmol | >262 nmol | 
C/N=C(/NC#N)NCCSCc1csc(NC(=N)N)n1 [TIOTIDINE] | >320 nmol | >320 nmol | 
NC(=NCc1ccc(Cl)cc1)SCCCc1cnc[nH]1 [CLOBENPROPIT] |  |  | Activity (Rattus norvegicus [3]): Non-toxic; Activity (Rattus norvegicus [4]): Non-toxic
C/N=C(\S)NCCc1c[nH]cn1 | 85 nmol | 85 nmol | 
S=C(NCCCCc1c[nH]cn1)NCc1ccccc1 | 105 nmol | 105 nmol | 
S=C(Nc1ccccc1)N1CCC(c2c[nH]cn2)CC1 |  |  | Emax (Rattus norvegicus [1]): < 100%; Emax (Rattus norvegicus [2]): < 100%
CN/C(=N\CCSCc1nc[nH]c1C)NC#N [CIMETIDINE] | 464 nmol | 464 nmol | Activity (Rattus norvegicus [5]): tde; Activity (Rattus norvegicus [1]): Dose-dependent effect; Activity (Rattus norvegicus [6]): tde; Activity (Rattus norvegicus [2]): Dose-dependent effect
O=C(NCCCCc1c[nH]cn1)Nc1ccccc1 | 65 nmol | 65 nmol | 
CN/C(=N\C#N)NCCSCc1ccc(CN(C)C)o1 | 67 nmol | 67 nmol | Activity (Rattus norvegicus [7]): Non-toxic; Activity (Rattus norvegicus [8]): Non-toxic; Activity (Rattus norvegicus [9]): tde; Activity (Rattus norvegicus [10]): tde; Activity (Rattus norvegicus [11]): inactive; Activity (Rattus norvegicus [12]): inactive; Activity (Rattus norvegicus [1]): Dose-dependent effect; Activity (Rattus norvegicus [2]): Dose-dependent effect
S=C(NCCCCc1c[nH]cn1)NC1CCCCC1 | 285 nmol | 285 nmol | 
S=C(NCCCCc1c[nH]cn1)NCCc1ccccc1 | 80 nmol | 80 nmol | 
S=C(NCCCCCCc1c[nH]cn1)Nc1ccccc1 |  |  | Emax (Rattus norvegicus [1]): < 100%; Emax (Rattus norvegicus [2]): < 100%
C/N=C(\S)NCCCCc1c[nH]cn1 [BURIMAMIDE] | 184 nmol | 184 nmol | Activity (Rattus norvegicus [5]): tde; Activity (Rattus norvegicus [1]): Dose-dependent effect; Activity (Rattus norvegicus [6]): tde; Activity (Rattus norvegicus [2]): Dose-dependent effect
c1ccc(NCCCOc2cccc(CN3CCCCC3)c2)cc1 [SKF95299] | >308 nmol | >308 nmol | 

SMILES | ED50 (Rattus norvegicus [1]) | ED50 (Rattus norvegicus [2]) | further results
S=C(NCCc1c[nH]cn1)Nc1ccccc1 | 89 nmol | 89 nmol | 
CN/C(=N\C#N)NCCSCc1ccccn1 | >602 nmol | >602 nmol | 
C/N=C(\S)NCCCCCCc1c[nH]cn1 | 87 nmol | 87 nmol | 
CN/C(=N/CCSCc1nc[nH]c1C)NC#N [CIMETIDINE] |  |  | Activity (Rattus norvegicus [3]): Non-toxic; Activity (Rattus norvegicus [4]): Non-toxic
CNC(=S)NCCCCc1cnc[nH]1 [BURIMAMIDE] |  |  | Kd (Histamine H3 receptor [13]): 0.1 µM; Kd (Histamine H2 receptor): 7.8 µM; Activity (Rattus norvegicus [3]): Non-toxic; Activity (Rattus norvegicus [4]): Non-toxic
CNC(=S)N1CCC(c2c[nH]cn2)CC1 | 201 nmol | 201 nmol | 
S=C(NC1CCCCC1)N1CCC(c2cnc[nH]2)CC1 [THIOPERAMIDE] | >342 nmol | >342 nmol | 
CNC(=S)NCCSCc1[nH]cnc1C [METIAMIDE] | 370 nmol | 370 nmol | 
CN/C(=C/[N+](=O)[O-])NCCCn1ccnc1 |  |  | Activity (Rattus norvegicus [3]): Non-toxic; Activity (Rattus norvegicus [4]): Non-toxic
CN/C(=N\C#N)NCCSCc1ccccc1 | >403 nmol | >403 nmol | 
CN/C(=C\[N+](=O)[O-])NCCCCc1c[nH]cn1 | 104 nmol | 104 nmol | 
C/N=C(\S)NCCCc1c[nH]cn1 [NORBURIMAMIDE] | 217 nmol | 217 nmol | 
CNC(=C[N+](=O)[O-])NCCSCc1ccc(CN(C)C)o1 [RANITIDINE] | 109 nmol | 109 nmol | 
CN/C(=N\C#N)NCCCc1c[nH]cn1 [IMPROGAN] | 330 nmol | 330 nmol | Kd (Histamine H3 receptor [14]): 5 µM; Activity (Rattus norvegicus [3]): Non-toxic; Activity (Rattus norvegicus [4]): Non-toxic; Activity (Rattus norvegicus [5]): tde; Activity (Rattus norvegicus [1]): Dose-dependent effect; Activity (Rattus norvegicus [6]): tde; Activity (Rattus norvegicus [2]): Dose-dependent effect
S=C(NCCCCc1c[nH]cn1)Nc1ccccc1 | 81 nmol | 81 nmol | 
